Columns and labels:
[1] = test system: GRMD dogs; test: MRI of proximal pelvic limb muscles, GRMD dogs; assay type: in vivo, dog; set-up: MRI T2 mapping value: unit not given here; settings: 6 months, NBD 10 mg/kg IV 3x weekly for 4 months, n = 6
Source text: Studies were done on a Siemens 3 T Allegra Head-Only MRI scanner with a circular polarization (CP) head coil or Siemens 3 T Tim Trio Whole-Body MRI scanner with a 32-channel body coil at the UNC-CH Biomedical Research Imaging Center (BRIC). Dogs were anesthetized (above), placed on an MRI gantry in the sternal (prone) position with the pelvic limbs extended, and positioned in the coil centered at the midpoint of the femur. The proximal pelvic limbs from the coxofemoral joint to the stifle were imaged bilaterally. Scans were completed using a published protocol. T2-weighted image sequences without (T2w) and with fat saturation (T2fs) were acquired using a variable-flip-angle turbo spin echo (TSE) sequence. The time between the excitation pulse and the center of k-space was 400 ms. Importantly, the contrast was not determined only by the TE (400 ms), but also by the flip angle evolution scheme. Although a traditional TSE sequence would have very little signal at 400 ms, the variable flip angle sequence is similar in principle to hyper-echo. The hyper-echo reduces the specific absorption rate (SAR), while the variable flip angle sequence allows long TE times. A multi-spin-echo T2 (MSE-T2), using a 10-echo Carr-Purcell-Meiboom-Gill sequence, was acquired to calculate the T2 value map. Analysis of the images was completed in three modules: muscle segmentation, pre-processing, and biomarker analysis. As a prerequisite, we first segmented the major proximal pelvic limb muscles in the MRI images. All proximal pelvic limb muscles were segmented but only five slices at the midfemur were analyzed and averaged.
For the sake of this study, the biomarker analysis was limited to muscle volumes, T2 mapping values, and several texture analysis features, including a first-order intensity histogram texture feature (entropy) and two high order run length matrix features (short run emphasis (SRE) and run length non-uniformity (RLN)). These texture analysis features were assessed as potential markers of patchy lesions such as necrosis. Based on the mathematical model, we refer to short run emphasis as the Small Lesion Index (SLI) and non-uniformity as the Heterogeneity Index (HI). Both SLI and HI use the run-length matrix method. Compared to histogram-based biomarkers that use intensity data only, the run-length matrix method also takes into account the spatial distribution and intensity of the voxels. A gray-level ‘run’ is defined as a set of consecutive voxels of similar intensity level in a given direction within a predefined similarity range. This is run in a three-dimensional matrix and is intended to detect lumps of hyper-intensity in MRI. To determine overall muscle scores for T2 and the texture features in each group, the proportional muscle volume was considered, so as to calculate a weighted average.

[2] = test system: wild type and GRMD dogs; settings: dog, in vivo
Description: NBD peptide (TALDWSWLQTE) fused to an Antennapedia protein transduction domain [9] was generated using an ABI 430A solid-phase peptide synthesizer (Applied Biosystems, Foster City, CA, USA) as previously described. NBD solutions (10 mg/mL) for the canine studies were prepared weekly. Needed volumes were calculated based on the current dog body weights, plus estimated weekly gain averages. Compound was weighed on a laboratory balance to the nearest 0.1 g and reconstituted in sterile water. Solution was then sterile-filtered through 0.22 μm filters into a sterile fluid administration bag and refrigerated at 4°C until use. […] Heart and respiratory rate, mucous membrane color, capillary refill time, and body temperature were monitored throughout the perfusion. […] The syringe pump was initially programed to administer the calculated volume over 10 min, but this was extended to 30 min when reactions were seen. Blood pressure was recorded prior to start of perfusion, at 5-min intervals throughout perfusion, and post-perfusion (Cardell® 9405 Multiparameter Monitor, Midmark Corporation, Versailles, OH, USA). Dogs were monitored for adverse reactions throughout the perfusion and for up to 30 min after completion.

[3] = test system: GRMD dogs; test: Eccentric contraction decrement (ECD), GRMD dogs; assay type: in vivo, dog; settings: n = 6; for ECD (1-10): after 10 contractions; for ECD (1-30): after 30 contractions
Source text: Eccentric contractions were induced by stimulating the peroneal nerve using square wave pulses of 100 μs duration in a tetanic run for 1 s at a frequency of 50 Hz while simultaneously extending the TTJ with a servomotor (Aurora Scientific, Aurora, ON, Canada). The contraction was held isometric at the optimal joint angle, expressed as Lo here (see discussion above), for the first 900 ms. For the final 100 ms, the muscles of the cranial tibial compartment were stretched by the servomotor at 0.7 Lo/s, such that the muscles were displaced to 107% of Lo. Thus, the muscles of the cranial tibial compartment were repeatedly stretched to induce mechanical damage. Three sets of 10 stretches for a total of 30, each set separated by 4 min, were performed. Contraction-induced injury was quantified by the force (torque) deficit (Fd) using the following equation: Fd = (Maximal isometric tetanic force (Po) before stretch - Po after stretch/Po before stretch) × 100.

[4] = test system: mdx mice; settings: cited from earlier work
Source text: […] […] Our ability to collectively achieve such a benefit in GRMD dogs, as well as in mdx diaphragm, [9, 13] and dko hearts, supports the pre-clinical efficacy of NBD. Due to interspecies differences among mice, dogs, and humans, it is difficult to say e ...

[5] = NBD group, age 2 months (start of treatment)
[6] = age 6 months, NBD 10 mg/kg IV 3x weekly for 4 months

With “TALDWSWLQTE [NBD, NBD peptide (…) fused to an Antennapedia protein transduction domain]” the “MRI HI (Heterogeneity Index, run length non-uniformity)” value ([1]; Adductor) was 116.2 ± 22.37, the “MRI SLI (Small Lesion Index, short run emphasis)” value ([1]; Adductor) was 0.72 ± 0.02 and the “MRI T2 mapping value” ([1]; Adductor) was 39.52 ± 4.76. The “MRI HI (Heterogeneity Index, run length non-uniformity)” value ([1]; All muscles (weighted average)) was 86.01 ± 18.28, the “MRI SLI (Small Lesion Index, short run emphasis)” value ([1]; All muscles (weighted average)) was 0.70 ± 0.04^^ and the “MRI T2 mapping value” ([1]; All muscles (weighted average)) was 47.34 ± 3.10^^. The “MRI HI (Heterogeneity Index, run length non-uniformity)” value ([1]; Biceps Femoris) was 87.50 ± 48.42, the “MRI SLI (Small Lesion Index, short run emphasis)” value ([1]; Biceps Femoris) was 0.68 ± 0.06^^ and the “MRI T2 mapping value” ([1]; Biceps Femoris) was 40.20 ± 4.91^^. For the same sequence, the “MRI HI (Heterogeneity Index, run length non-uniformity)” value ([1]; Caudal Sartorius) was 35.21 ± 14.92, the “MRI SLI (Small Lesion Index, short run emphasis)” value ([1]; Caudal Sartorius) was 0.83 ± 0.05 and the “MRI T2 mapping value” ([1]; Caudal Sartorius) was 53.87 ± 9.88. For the same sequence, the “MRI SLI (Small Lesion Index, short run emphasis)” value ([1]; Cranial Sartorius) was 0.79 ± 0.05, the “MRI T2 mapping value” ([1]; Cranial Sartorius) was 49.40 ± 9.01 and the “MRI HI (Heterogeneity Index, run length non-uniformity)” value ([1]; Gracilis) was 58.90 ± 30.66. For the same sequence, the “MRI SLI (Small Lesion Index, short run emphasis)” value ([1]; Gracilis) was 0.70 ± 0.06^^, the “MRI T2 mapping value” ([1]; Gracilis) was 45.91 ± 3.50 and the “MRI HI (Heterogeneity Index, run length non-uniformity)” value ([1]; Rectus Femoris) was 55.42 ± 21.95. For the same sequence, the “MRI SLI (Small Lesion Index, short run emphasis)” value ([1]; Rectus Femoris) was 0.68 ± 0.07^^, the “MRI T2 mapping value” ([1]; Rectus Femoris) was 37.23 ± 4.72 and the “MRI HI (Heterogeneity Index, run length non-uniformity)” value ([1]; Semimembranosus) was 78.15 ± 33.31. For the same sequence, the “MRI SLI (Small Lesion Index, short run emphasis)” value ([1]; Semimembranosus) was 0.68 ± 0.06, the “MRI T2 mapping value” ([1]; Semimembranosus) was 39.42 ± 4.86 and the “MRI HI (Heterogeneity Index, run length non-uniformity)” value ([1]; Semitendinosus) was 81.43 ± 35.00. For the same sequence, the “MRI SLI (Small Lesion Index, short run emphasis)” value ([1]; Semitendinosus) was 0.67 ± 0.08^^, the “MRI T2 mapping value” ([1]; Semitendinosus) was 40.41 ± 4.97^^ and the “MRI HI (Heterogeneity Index, run length non-uniformity)” value ([1]; Vastus Intermedius) was 59.10 ± 27.19. The “MRI SLI (Small Lesion Index, short run emphasis)” value ([1]; Vastus Intermedius) was 0.68 ± 0.09, the “MRI T2 mapping value” ([1]; Vastus Intermedius) was 41.91 ± 5.91^^ and the “MRI HI (Heterogeneity Index, run length non-uniformity)” value ([1]; Vastus Lateralis) was 52.92 ± 27.20. The “MRI SLI (Small Lesion Index, short run emphasis)” value ([1]; Vastus Lateralis) was 0.68 ± 0.04^^, the “MRI T2 mapping value” ([1]; Vastus Lateralis) was 40.67 ± 5.84^^ and the “MRI HI (Heterogeneity Index, run length non-uniformity)” value ([1]; Vastus Medialis) was 52.55 ± 22.29. For the same sequence, the “MRI SLI (Small Lesion Index, short run emphasis)” value ([1]; Vastus Medialis) was 0.77 ± 0.09, the “MRI T2 mapping value” ([1]; Vastus Medialis) was 42.74 ± 5.65 and the “Blood pressure during administration” value [2] was “decreased”. For the same sequence, the “Onset of infusion reactions (time of treatment)” value ([2]; iv, 10 mg/kg) was “approximately 1 month”, the “ECD (1-10)” value [3, 5] was 16.12 ± 5.88% and the “ECD (1-10)” value [3, 6] was 32.04 ± 13.46%. The “ECD (1-30)” value [3, 5] was 38.67 ± 10.34%, the “ECD (1-30)” value [3, 6] was 54.48 ± 13.64% and the “Efficacy on dose reduction” value ([4]; IP 3x per week, concentrations of NBD reduced from 10 to 2 mg/kg) was “efficacy was lost”. For the same sequence, the “Functional improvement, mdx diaphragm” value ([4]; NBD-treated mdx mice) was 43%.
